Patent US4916126A, “Diacyl derivatives of 4-(trialkylbenzyl)-piperazinyl compounds” (Ciba-Geigy Corporation, priority 1988, dated 1990)
≈ marks a conversion by molar mass, not a printed value.

Columns and labels:
[1] = tested on: serum lipoproteins (VLDL, LDL and HDL); experiment: reduction of serum lipoproteins (VLDL, LDL and HDL) in genetically hypercholesterolaemic rats (procedure A) and normolipaemic rats (procedure B); type: in vivo; details: repeated administration of 30 mg/kg daily, oral
Experimental: In contrast, the diacyl compounds of the present invention have, if at all, only a marginal antibiotic action.
Albino rats having a body weight of from 180 to 240 g and having free access to normal rat food and drinking water are used, Sprague Dawley derivatives of the strain Tif:RAI in procedure A and animals of the Wistar strain IVa-WI in procedure B. The test compound is administered orally in a polyethylene glycol solution (average molecular weight 400) to groups of from 8 to 10 rats, in procedure A once daily at 8 a.m. for three consecutive days and twice, at 8 a.m. and 4 p.m., on the fourth day, and in the case of procedure B, daily for 5 consecutive days. In experiment A the animals are sacrificed 16 hours, and in experiment B two hours, after the final administration by bleeding from the neck under anaesthesia with ether. The animals are given no food during the 16 hours before they are sacrificed. […] The serum lipoproteins are separated using an unltracentrifuge by means of 24-hour centrifugation at 78,000 g, 78,000 g and 109,000 g in salt solutions having densities of 1.006, 1.040 and 1.21, respectively, and are analysed enzymatically for their content of cholesterol and triglycerides using the test systems supplied, for example, by Miles (Lausanne, Switzerland) and Bohringer (Mannheim, Federal Republic of Germany).

[2] = molecular target: RNA polymerase of Escherichia coli (Escherichia coli, UniProt P0A8V2); experiment: inhibition of the RNA polymerase of Escherichia coli in vitro; type: biochemical; details: not achieved even with 100 μg/ml
RNA polymerase of Escherichia coli, sequence (P0A8V2 whole entry): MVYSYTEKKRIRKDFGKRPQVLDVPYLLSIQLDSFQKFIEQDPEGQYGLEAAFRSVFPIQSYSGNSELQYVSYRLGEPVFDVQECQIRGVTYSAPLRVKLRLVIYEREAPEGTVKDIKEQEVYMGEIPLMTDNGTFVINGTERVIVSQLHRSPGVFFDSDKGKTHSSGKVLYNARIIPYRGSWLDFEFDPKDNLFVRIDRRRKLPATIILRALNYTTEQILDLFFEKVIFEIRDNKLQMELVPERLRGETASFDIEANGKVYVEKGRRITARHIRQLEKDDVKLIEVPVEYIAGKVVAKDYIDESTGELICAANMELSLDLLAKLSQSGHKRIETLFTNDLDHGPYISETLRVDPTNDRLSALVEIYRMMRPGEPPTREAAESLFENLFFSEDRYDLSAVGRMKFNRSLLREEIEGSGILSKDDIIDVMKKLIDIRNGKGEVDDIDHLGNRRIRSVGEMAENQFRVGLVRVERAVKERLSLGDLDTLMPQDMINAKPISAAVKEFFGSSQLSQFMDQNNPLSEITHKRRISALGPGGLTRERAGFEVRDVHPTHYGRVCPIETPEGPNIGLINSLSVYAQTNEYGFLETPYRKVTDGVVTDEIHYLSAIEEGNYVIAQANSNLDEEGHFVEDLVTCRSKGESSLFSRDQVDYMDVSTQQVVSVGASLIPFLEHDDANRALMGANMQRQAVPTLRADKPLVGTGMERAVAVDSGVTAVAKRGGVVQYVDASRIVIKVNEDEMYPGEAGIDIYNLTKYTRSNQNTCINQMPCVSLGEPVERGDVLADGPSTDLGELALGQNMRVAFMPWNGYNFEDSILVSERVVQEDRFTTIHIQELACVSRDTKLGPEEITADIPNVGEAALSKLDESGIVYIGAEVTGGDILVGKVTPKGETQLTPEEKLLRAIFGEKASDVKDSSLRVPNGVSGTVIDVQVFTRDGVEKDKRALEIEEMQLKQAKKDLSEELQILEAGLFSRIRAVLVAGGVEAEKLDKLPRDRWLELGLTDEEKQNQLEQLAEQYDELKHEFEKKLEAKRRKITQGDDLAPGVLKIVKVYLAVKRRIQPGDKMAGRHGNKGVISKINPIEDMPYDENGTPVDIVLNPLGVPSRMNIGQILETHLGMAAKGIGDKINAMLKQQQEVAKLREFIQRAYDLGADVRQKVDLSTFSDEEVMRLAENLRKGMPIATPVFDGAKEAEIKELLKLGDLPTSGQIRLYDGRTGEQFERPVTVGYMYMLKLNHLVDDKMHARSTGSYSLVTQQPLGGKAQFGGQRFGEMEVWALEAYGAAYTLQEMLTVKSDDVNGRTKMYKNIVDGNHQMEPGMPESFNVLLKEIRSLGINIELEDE
RNA polymerase of Escherichia coli, sequence (P0A8T7 whole entry partner): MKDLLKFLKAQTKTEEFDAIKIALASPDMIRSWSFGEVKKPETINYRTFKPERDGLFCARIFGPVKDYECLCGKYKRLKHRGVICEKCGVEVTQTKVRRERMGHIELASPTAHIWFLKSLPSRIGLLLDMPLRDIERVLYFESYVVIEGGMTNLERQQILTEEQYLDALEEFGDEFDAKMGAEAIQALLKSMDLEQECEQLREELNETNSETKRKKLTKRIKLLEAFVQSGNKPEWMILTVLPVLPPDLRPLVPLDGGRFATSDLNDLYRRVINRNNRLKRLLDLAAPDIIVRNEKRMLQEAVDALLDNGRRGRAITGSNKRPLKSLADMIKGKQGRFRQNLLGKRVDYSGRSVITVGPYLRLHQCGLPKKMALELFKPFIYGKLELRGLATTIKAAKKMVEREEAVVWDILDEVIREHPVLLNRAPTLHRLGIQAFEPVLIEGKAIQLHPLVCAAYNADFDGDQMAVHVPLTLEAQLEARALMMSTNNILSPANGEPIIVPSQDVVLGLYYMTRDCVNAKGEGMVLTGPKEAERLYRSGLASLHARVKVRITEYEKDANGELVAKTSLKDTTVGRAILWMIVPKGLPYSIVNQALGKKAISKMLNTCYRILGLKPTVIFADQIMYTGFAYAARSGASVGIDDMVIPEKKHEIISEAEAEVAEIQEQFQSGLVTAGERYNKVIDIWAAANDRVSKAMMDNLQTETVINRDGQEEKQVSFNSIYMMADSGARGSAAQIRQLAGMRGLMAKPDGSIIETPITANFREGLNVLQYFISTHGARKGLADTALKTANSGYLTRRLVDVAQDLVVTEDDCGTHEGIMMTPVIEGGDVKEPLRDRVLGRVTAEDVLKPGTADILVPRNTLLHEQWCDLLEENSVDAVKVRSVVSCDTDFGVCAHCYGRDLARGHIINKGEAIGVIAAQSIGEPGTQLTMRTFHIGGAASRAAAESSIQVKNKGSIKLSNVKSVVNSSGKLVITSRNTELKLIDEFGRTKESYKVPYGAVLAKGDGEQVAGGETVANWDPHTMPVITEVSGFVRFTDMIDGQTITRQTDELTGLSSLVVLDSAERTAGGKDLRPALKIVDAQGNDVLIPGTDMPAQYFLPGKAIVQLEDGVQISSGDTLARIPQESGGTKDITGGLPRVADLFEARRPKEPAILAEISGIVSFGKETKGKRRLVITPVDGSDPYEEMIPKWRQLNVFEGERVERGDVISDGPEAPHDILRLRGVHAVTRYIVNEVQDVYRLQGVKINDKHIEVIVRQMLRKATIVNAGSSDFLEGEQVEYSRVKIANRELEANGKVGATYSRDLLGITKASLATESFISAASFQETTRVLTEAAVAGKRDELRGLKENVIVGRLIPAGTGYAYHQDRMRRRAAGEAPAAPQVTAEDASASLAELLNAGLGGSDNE
RNA polymerase of Escherichia coli, sequence (P0A7Z4 whole entry partner): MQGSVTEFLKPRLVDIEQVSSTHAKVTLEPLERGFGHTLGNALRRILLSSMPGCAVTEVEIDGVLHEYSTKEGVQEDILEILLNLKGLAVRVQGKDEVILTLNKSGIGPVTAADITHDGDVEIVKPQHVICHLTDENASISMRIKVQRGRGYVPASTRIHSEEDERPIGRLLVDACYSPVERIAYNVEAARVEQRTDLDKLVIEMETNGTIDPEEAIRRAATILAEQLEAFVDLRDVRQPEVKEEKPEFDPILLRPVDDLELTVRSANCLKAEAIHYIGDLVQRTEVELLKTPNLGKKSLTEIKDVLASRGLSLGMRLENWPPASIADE
RNA polymerase of Escherichia coli, sequence (P0A800 2-91 partner limits assumed): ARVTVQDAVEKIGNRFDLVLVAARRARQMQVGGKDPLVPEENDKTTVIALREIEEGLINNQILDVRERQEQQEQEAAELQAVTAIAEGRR
Description: The antibiotic action is ascertained, for example, on the one hand in vitro by determining the mean effective concentration EC50 for the inhibition of the RNA polymerase of Escherichia coli and by determining the minimum inhibitory concentration MIC in a conventional plate test, and on the other hand in vivo, using infected mice and rats, by determining the ED50 (effective dose that ensures the survival of 50% of the experimental animals). There are used as micro-organisms for the present purpose especially Mycobacterium tuberculosis TB H37 Rv and Staphylococcus aureus. In the case of compounds having a lipid-reducing indication, an antibiotic activity is regarded as disadvantageous since it can result in the formation of strains of micro-organisms that are resistant to antibiotics, especially when the compounds are administered over a prolonged period.

[3] = tested on: Staphylococcus aureus; experiment: minimum inhibitory concentration in a conventional plate test; type: cell-based; details: read-out: MIC for various pathogenic strains of Staphylococcus aureus
[4] = tested on: Staphylococcus aureus; experiment: in vivo antibiotic action in mice infected with Staphylococcus aureus; details: single dose of 200 mg/kg
[5] = tested on: Mycobacterium tuberculosis TB H37 Rv and Staphylococcus aureus; experiment: antibiotic action, in vitro and in vivo tests as a whole

COC1C=COC2(C)Oc3c(C)c(OC(=O)C(C)(C)C)c4c(c3C2=O)C(=O)C(N2CCN(Cc3c(C)cc(C)cc3C)CC2)=C(C4=O)N(C(=O)C(C)(C)C)C(=O)C(C)=CC=CC(C)C(O)C(C)C(O)C(C)C(OC(C)=O)C1C (stereo not drawn) [8-O,N-dipivaloyl-3-[4-(2,4,6-trimethylbenzyl)-1-piperazinyl]-rifamycin S] was tested, and the “reduction in the "LDL fraction"” value [1] was 50-70%, the EC50 [2] was over 92.6 µM and the MIC [3] was about 64 µg/mL (≈ 59.2 µM). For the same molecule, the “antibiotic activity in vivo” value [4] was “antibiotically inactive”, the antibiotic activity ([5]; overall statement) was “practically no antibiotic activity” and the “EC50 and MIC values relative to concentrations normally necessary for a corresponding effect” value ([5]; refers to RNA polymerase EC50 and Staphylococcus aureus MIC) was “approximately 1000 times”.
